Assay [1] deals with indicated HLA alleles. Put plainly: Stability of mutant BTK neopeptides with the HLA alleles. The class given is binding, human. The following applies: BTK_C481S. The protocol: (§1) Multiple peptides containing neoepitopes in the table below were either expressed or loaded onto antigen presenting cells. Mass spectrometry was then performed and the affinity of the neoepitopes for indicated HLA alleles were determined, and the stability of the neoepitopes with the HLA alleles were determined.

Assay [2] addresses indicated HLA alleles (Homo sapiens, UniProt P01889). Put plainly: Affinity of mutant BTK neopeptides for indicated HLA alleles. The class given is binding. How it is done:
as §1

For assay [3], the target named is indicated HLA alleles. Described as above. Format: binding, human. The settings on record: BTK_C481S. The protocol:
as §1

Assay [4] has as its target T1, HLA-A02:01 (Homo sapiens, UniProt P04439, D140Y/D185E/D98H/E176V/E277Q/G131W/G231S/I119V/I121R/I166T/I218V/L300P/L318F/N151K/N90K/P208A/P217A/Q86G/Q94H/R138H/R169H/T345S). Put plainly: Affinity measurements, competition with radiolabeled peptide (Example 20). Format: binding.
Assay [5] relates to indicated HLA alleles. Nature of the assay: Stability of GATA3 neoORF neoepitopes with the HLA alleles (Example 9, Table 4). The class given is binding, human. How it is done: (§2) Multiple peptides containing the neoepitopes in Table 4 below were expressed or loaded onto antigen presenting cells (APCs). Mass spectrometry was then performed and the affinity of the neoepitopes for the indicated HLA alleles and stability of the neoepitopes with the HLA alleles was determined.

For assay [6], the target named is T1, HLA-A02:01. Nature of the assay: Stability measurements, pMHC-I dissociation with 125I light chain (Example 20). Format: binding. How it is done: To measure the binding stability of peptides to Class I MHC, synthetic genes encoding biotinylated MHC-I heavy and light chains are expressed in E. coli and purified from inclusion bodies using standard methods. […] These reactions were carried out in streptavidin coated microplates to bind the biotinylated MHC-I heavy chains to the surface and allow measurement of radiolabeled light chain to monitor complex formation. Dissociation was initiated by addition of higher concentrations of unlabeled light-chain and incubation at 37° C. Stability was defined as the length of time in hours it takes for half of the complexes to dissociate, as measured by scintillation counts. Duplicate measurements were performed. The average of the two measurements was taken as the stability.

The target of assay [7] is indicated HLA alleles. Put plainly: Affinity of GATA3 neoORF neoepitopes for the indicated HLA alleles (Example 9, Table 4). The class given is binding, human. The following applies: read-out: Observed MHC affinity. The protocol:
as §2

In assay [8] the target is indicated HLA alleles (Homo sapiens, UniProt P04439). The assay is described as above. The class given is binding. The protocol: as §2

Where no end group is shown, it is not given here.

Take `CSCC[C@H](NC(=O)[C@H](CCC(=O)O)NC(=O)[C@H](CCCNC(=N)N)NC(=O)[C@H](CC(C)C)NC(=O)[C@H](Cc1ccc(O)cc1)NC(=O)[C@H](CC(N)=O)NC(=O)[C@H](CC(C)C)NC(=O)[C@H](CC(C)C)NC(=O)[C@@H](N)CO)C(=O)O`: the “Stability (1/2 hr)” value in the assay with indicated HLA alleles [1] (HLA A02.01) worked out at 3.044 h; with indicated HLA alleles [1] (HLA B07.02), 0 h; with indicated HLA alleles [1] (HLA B08.01), 0 h. Besides, the Kd on indicated HLA alleles [2] stood at 866 nM; on indicated HLA alleles [3] (HLA A02.01), 67.7 nM; at indicated HLA alleles [3] (HLA B08.01), 960 nM.

As a reminder, the IC50 is the concentration that inhibits the measured activity by half. High values mean weaker potency, low ones greater potency. Regarding TLQRSSLWCL, on HLA-A02:01 [4], the IC50 worked out at 281 nM. Also, in the assay with indicated HLA alleles [5] (Allele A02.01), the “Observed MHC stability” value was determined as 0.5 h. Further, on HLA-A02:01 [6], the “Experiment 1 half-life” value is 30 min and the “Experiment 2 half-life” value turned out to be 30 min. On HLA-A02:01 [6] (average of experiments 1 and 2), this molecule had an Average half-life of 30 min. Moreover, the Kd at indicated HLA alleles [7] (Allele A02.01) amounted to 118 nM.

With VLWTTPPLQH, the results for the “Observed MHC stability” value with indicated HLA alleles [5] (Allele A03:01) and with indicated HLA alleles [5] (Allele A11:01) were 0.3 h and 0 h, respectively. Also, the figures for the Kd at indicated HLA alleles [8] and at indicated HLA alleles [7] (Allele A11:01) were 16 nM and 4540 nM, respectively.

For the origin of these results see US20210275657A1, “NEOANTIGENS AND USES THEREOF” (BioNTech US Inc., priority 2018, published 2021).
